Experimental data published in ChEMBL document CHEMBL3243925, “Disteroidyl ethers. 1. Synthesis and oral long-lasting uterotrophic activity of 1,3,5(10)-estratrien-17-yl enol ethers of 3-keto steroids” (1977).
The source made the active and inactive calls. The calls are words filed in the database; no cut-off is given here.

Columns and labels:
Rattus norvegicus [1] = experiment: Uterotrophic activity in spayed Wistar rat assessed as autopsies by measuring uterus weight at 0.1 umol, po after 2 weeks (reference value: 15.9 +/- 0.50 mg); type: functional
Rattus norvegicus [2] = experiment: Uterotrophic activity in spayed Wistar rat assessed as autopsies by measuring uterus weight at 0.1 umol, po after 1 week (reference value: 15.1 +/- 0.51 mg); type: functional

Structure (SMILES) | Activity (Rattus norvegicus [1]) | Activity (Rattus norvegicus [2])
C#C[C@]1(OC(=O)CCCCCC)CC[C@H]2[C@@H]3CC=C4C=C(O[C@H]5CC[C@H]6[C@@H]7CCc8cc(OC)ccc8[C@H]7CC[C@]56C)CC[C@@H]4[C@H]3CC[C@@]21C | 15.4 mg | 18.2 mg
C[C@]12CC[C@@H]3c4ccc(O)cc4CC[C@H]3[C@@H]1CC[C@@H]2OC1=CC2=CC[C@@H]3[C@H](CC[C@@]4(C)[C@H]3CC[C@]4(C)O)[C@@]2(C)CC1 | 33.5 mg | 48.1 mg
C[C@]12CCC(O[C@H]3CC[C@H]4[C@@H]5CCc6cc(O)ccc6[C@H]5CC[C@]34C)C[C@H]1CC[C@@H]1[C@@H]2CC[C@]2(C)[C@@H](O)CC[C@@H]12 (stereo partly drawn) | inactive | inactive
C#C[C@]1(OC(=O)CCCCCC)CC[C@H]2[C@@H]3CC=C4C=C(O[C@H]5CC[C@H]6[C@@H]7CCc8cc(O)ccc8[C@H]7CC[C@]56C)CC[C@@H]4[C@H]3CC[C@@]21C | 22.1 mg | 33.8 mg
C#C[C@]1(O)CC[C@H]2[C@@H]3CC=C4C=C(O[C@H]5CC[C@H]6[C@@H]7CCc8cc(OC(C)=O)ccc8[C@H]7CC[C@]56C)CC[C@@H]4[C@H]3CC[C@@]21C | 32.7 mg | 39.2 mg
C#C[C@]1(OC(C)=O)CC[C@H]2[C@@H]3CC=C4C=C(O[C@H]5CC[C@H]6[C@@H]7CCc8cc(OC(C)OCC)ccc8[C@H]7CC[C@]56C)CC[C@@H]4[C@H]3CC[C@@]21C (stereo partly drawn) | 19.3 mg | 30.3 mg
CC(=O)[C@H]1CC[C@H]2[C@@H]3CC=C4C=C(O[C@H]5CC[C@H]6[C@@H]7CCc8cc(OC(=O)c9ccccc9)ccc8[C@H]7CC[C@]56C)CC[C@@H]4[C@H]3CC[C@]12C | 28.5 mg | 29.1 mg
C#C[C@]1(OC(C)=O)CC[C@H]2[C@@H]3CC=C4C=C(O[C@H]5CC[C@H]6[C@@H]7CCc8cc(OC(C)=O)ccc8[C@H]7CC[C@]56C)CC[C@@H]4[C@H]3CC[C@@]21C | 25.4 mg | 36.6 mg
CC(=O)[C@@H]1CC[C@H]2[C@@H]3CC=C4C=C(O[C@H]5CC[C@H]6[C@@H]7CCc8cc(OC(=O)c9ccccc9)ccc8[C@H]7CC[C@]56C)CC[C@@H]4[C@H]3CC[C@]12C | inactive | inactive
CCC(=O)O[C@H]1CC[C@H]2[C@@H]3CC=C4C=C(O[C@H]5CC[C@H]6[C@@H]7CCc8cc(OC(=O)c9ccccc9)ccc8[C@H]7CC[C@]56C)CC[C@]4(C)[C@H]3CC[C@]12C | 31 mg | 49.4 mg
CC(=O)O[C@H]1CC[C@H]2[C@@H]3CC=C4C=C(O[C@H]5CC[C@H]6[C@@H]7CCc8cc(OC(=O)c9ccccc9)ccc8[C@H]7CC[C@]56C)CC[C@@H]4[C@H]3CC[C@]12C | 31.6 mg | 48 mg
C[C@]12CC[C@@H]3c4ccc(O)cc4CC[C@H]3[C@@H]1CC[C@@H]2OC1=CC2=CC[C@@H]3[C@H](CC[C@]4(C)C(=O)CC[C@@H]34)[C@H]2CC1 | 43.6 mg | 71.7 mg
C[C@]12CC[C@@H]3c4ccc(OC(=O)c5ccccc5)cc4CC[C@H]3[C@@H]1CC[C@@H]2OC1=CC2=CC[C@@H]3[C@H](CC[C@]4(C)C(=O)CC[C@@H]34)[C@@]2(C)CC1 | 31.6 mg | 53 mg
C#C[C@]1(OC(=O)C(C)OCC)CC[C@H]2[C@@H]3CC=C4C=C(O[C@H]5CC[C@H]6[C@@H]7CCc8cc(OC(C)OCC)ccc8[C@H]7CC[C@]56C)CC[C@@H]4[C@H]3CC[C@@]21C (stereo partly drawn) | 18 mg | 23.6 mg
C[C@]12CCC(O[C@H]3CC[C@H]4[C@@H]5CCc6cc(O)ccc6[C@H]5CC[C@]34C)C[C@@H]1CC[C@@H]1[C@@H]2CC[C@]2(C)[C@@H](O)CC[C@@H]12 (stereo partly drawn) | inactive | inactive
C#C[C@]1(OC(C)=O)CC[C@H]2[C@@H]3CC=C4C=C(O[C@H]5CC[C@H]6[C@@H]7CCc8cc(OC(=O)c9ccccc9)ccc8[C@H]7CC[C@]56C)CC[C@@H]4[C@H]3CC[C@@]21C | 21.4 mg | 25.6 mg
C#C[C@]1(OC(=O)CCCCCC)CC[C@H]2[C@@H]3CC=C4C=C(O[C@H]5CC[C@H]6[C@@H]7CCc8cc(OC9CCCC9)ccc8[C@H]7CC[C@]56C)CC[C@@H]4[C@H]3CC[C@@]21C | 15.2 mg | 19.8 mg

Structure (SMILES) | Activity (Rattus norvegicus [1]) | Activity (Rattus norvegicus [2])
CCC(=O)O[C@H]1CC[C@H]2[C@@H]3CC[C@@H]4C=C(O[C@H]5CC[C@H]6[C@@H]7CCc8cc(OC(=O)c9ccccc9)ccc8[C@H]7CC[C@]56C)CC[C@]4(C)[C@H]3CC[C@]12C | 19.9 mg | 21.2 mg
C#C[C@]1(OC(=O)CCCCCC)CC[C@H]2[C@@H]3CC=C4C=C(O[C@H]5CC[C@H]6[C@@H]7CCc8cc(OC(C)=O)ccc8[C@H]7CC[C@]56C)CC[C@@H]4[C@H]3CC[C@@]21C | 28.7 mg | 31.7 mg
CC(=O)[C@H]1CC[C@H]2[C@@H]3CC=C4C=C(O[C@H]5CC[C@H]6[C@@H]7CCc8cc(OC(=O)c9ccccc9)ccc8[C@H]7CC[C@]56C)CC[C@]4(C)[C@H]3CC[C@]12C | 20.6 mg | 26.3 mg
C#C[C@]1(OC(C)=O)CC[C@H]2[C@@H]3CC=C4C=C(O[C@H]5CC[C@H]6[C@@H]7CCc8cc(OC(=O)CCCCCC)ccc8[C@H]7CC[C@]56C)CC[C@@H]4[C@H]3CC[C@@]21C | 18.9 mg | 29.5 mg
CC(=O)O[C@]1(C(C)=O)CC[C@H]2[C@@H]3CC=C4C=C(O[C@H]5CC[C@H]6[C@@H]7CCc8cc(OC(=O)c9ccccc9)ccc8[C@H]7CC[C@]56C)CC[C@]4(C)[C@H]3CC[C@@]21C | 23.3 mg | 27.5 mg
C[C@]12CC[C@@H]3c4ccc(OC(=O)CCC(=O)O)cc4CC[C@H]3[C@@H]1CC[C@@H]2OC1=CC2=CC[C@@H]3[C@H](CC[C@]4(C)C(=O)CC[C@@H]34)[C@H]2CC1 | 36.8 mg | 60.7 mg
C[C@]12CC[C@H]3[C@@H](CC=C4C=C(O[C@H]5CC[C@H]6[C@@H]7CCc8cc(OC9CCCC9)ccc8[C@H]7CC[C@]56C)CC[C@@H]43)[C@@H]1CC[C@@H]2OC(=O)CCC(=O)O | 31.8 mg | 28.9 mg
C[C@]12CC[C@@H]3c4ccc(OC5CCCC5)cc4CC[C@H]3[C@@H]1CC[C@@H]2OC1=CC2=CC[C@@H]3[C@H](CC[C@]4(C)[C@@H](O)CC[C@@H]34)[C@H]2CC1 | 27.1 mg | 35.8 mg
CCC(=O)O[C@H]1CC[C@H]2[C@@H]3CC[C@H]4CC(O[C@H]5CC[C@H]6[C@@H]7CCc8cc(OC(=O)c9ccccc9)ccc8[C@H]7CC[C@]56C)CC[C@]4(C)[C@H]3CC[C@]12C (stereo partly drawn) | inactive | inactive
CC(=O)O[C@@]1(C)CC[C@H]2[C@@H]3CC=C4C=C(O[C@H]5CC[C@H]6[C@@H]7CCc8cc(OC(=O)c9ccccc9)ccc8[C@H]7CC[C@]56C)CC[C@]4(C)[C@H]3CC[C@@]21C | 21.5 mg | 26.4 mg
C#C[C@]1(OC(=O)CCCCCC)CC[C@H]2[C@@H]3CC=C4C=C(O[C@H]5CC[C@H]6[C@@H]7CCc8cc(OC(=O)c9ccccc9)ccc8[C@H]7CC[C@]56C)CC[C@@H]4[C@H]3CC[C@@]21C | 24.2 mg | 35.6 mg
CC(=O)O[C@H]1CC[C@H]2[C@@H]3CC[C@H]4C=C(O[C@H]5CC[C@H]6[C@@H]7CCc8cc(OC(=O)c9ccccc9)ccc8[C@H]7CC[C@]56C)C=C[C@]4(C)[C@H]3CC[C@]12C | 20.1 mg | 21.3 mg
C[C@]12CC[C@@H]3c4ccc(O)cc4CC[C@H]3[C@@H]1CC[C@@H]2OC1=CC2=CC[C@@H]3[C@H](CC[C@]4(C)C(=O)CC[C@@H]34)[C@@]2(C)CC1 | 38.9 mg | 56.9 mg
C[C@]12CC[C@H]3[C@@H](CC=C4C=C(O[C@H]5CC[C@H]6[C@@H]7CCc8cc(OC(=O)c9ccccc9)ccc8[C@H]7CC[C@]56C)CC[C@@H]43)[C@@H]1CC[C@@H]2OC(=O)c1ccccc1 | 18.1 mg | 31.3 mg
C[C@]12CC[C@@H]3c4ccc(O)cc4CC[C@H]3[C@@H]1CC[C@@H]2OC1=CC2=CC[C@H]3[C@@H]4CC[C@H](O)[C@@]4(C)CC[C@@H]3[C@@]2(C)CC1 | 36.8 mg | 50.2 mg
C[C@]12CC[C@@H]3c4ccc(O)cc4CC[C@H]3[C@@H]1CC[C@@H]2OC1=CC2=CC[C@@H]3[C@H](CC[C@]4(C)[C@@H](O)CC[C@@H]34)[C@H]2CC1 | 41.6 mg | 59.9 mg
C[C@]12CC[C@@H]3c4ccc(OC(=O)c5ccccc5)cc4CC[C@H]3[C@@H]1CC[C@@H]2OC1=CC2=CC[C@@H]3[C@H](CC[C@]4(C)C(=O)CC[C@@H]34)[C@H]2CC1 | 43.7 mg | 59.8 mg
